Assay results reported in the NIST ThermoML archive (doi:10.1021/je200128y).
Several values for one entry are separate records, joined by “and”; a condition that tells them apart may be missing. Identical values can stand only once.

Conditions: Transpiration method

c1ccc(Nc2ccccc2)cc1 [diphenylamine]
Conditions | vapor or sublimation pressure
293.1 K, Crystal | 4e-05 kPa
293.7 K, Crystal | 4e-05 kPa
296.2 K, Crystal | 6e-05 kPa
298.2 K, Crystal | 7e-05 kPa
298.4 K, Crystal | 8e-05 kPa
300.2 K, Crystal | 0.0001 kPa
301 K, Crystal | 0.00012 kPa
302.1 K, Crystal | 0.00013 kPa
302.7 K, Crystal | 0.00015 kPa
303.2 K, Crystal | 0.00014 kPa
305.2 K, Crystal | 0.00017 kPa
305.5 K, Crystal | 0.0002 kPa
308 K, Crystal | 0.00024 kPa and 0.00025 kPa
308.2 K, Crystal | 0.00026 kPa
309.1 K, Crystal | 0.00029 kPa
309.3 K, Crystal | 0.0003 kPa
310.7 K, Crystal | 0.00034 kPa
312.3 K, Crystal | 0.00042 kPa
313 K, Crystal | 0.00045 kPa
313.7 K, Crystal | 0.0005 kPa
315 K, Crystal | 0.00054 kPa and 0.00055 kPa
315.4 K, Crystal | 0.00061 kPa
315.7 K, Crystal | 0.0006 kPa
316 K, Crystal | 0.00065 kPa
316.7 K, Crystal | 0.0007 kPa
317.2 K, Crystal | 0.00075 kPa
318 K, Crystal | 0.00083 kPa
318.2 K, Crystal | 0.00086 kPa
318.3 K, Crystal | 0.00085 kPa
318.7 K, Crystal | 0.00085 kPa
320.3 K, Crystal | 0.00111 kPa
320.7 K, Crystal | 0.0011 kPa
322.3 K, Crystal | 0.00138 kPa
323.2 K, Crystal | 0.00153 kPa and 0.00143 kPa
324.1 K, Crystal | 0.00169 kPa
324.7 K, Crystal | 0.00164 kPa
325.2 K, Crystal | 0.00186 kPa
326.7 K, Crystal | 0.00203 kPa
328.3 K, Liquid | 0.00245 kPa
332.2 K, Liquid | 0.00343 kPa
335.4 K, Liquid | 0.00438 kPa
338.1 K, Liquid | 0.00522 kPa
341.2 K, Liquid | 0.00684 kPa
343.2 K, Liquid | 0.0081 kPa
346.1 K, Liquid | 0.00963 kPa
348.2 K, Liquid | 0.01174 kPa
353.1 K, Liquid | 0.01698 kPa
357.2 K, Liquid | 0.02181 kPa
358.2 K, Liquid | 0.02355 kPa
360.2 K, Liquid | 0.02829 kPa
363 K, Liquid | 0.0322 kPa
363.1 K, Liquid | 0.03321 kPa
366.1 K, Liquid | 0.04193 kPa
368.1 K, Liquid | 0.04848 kPa
368.3 K, Liquid | 0.04791 kPa
371.9 K, Liquid | 0.06108 kPa
373.1 K, Liquid | 0.06621 kPa
